The source made the active and inactive calls. The rule behind the calls is not given here.
Experiments:
[1] = test system: Rattus norvegicus; assay: Hypolipidemic activity in HFD-induced Charles Foster rat chronic hyperlipidemia model assessed as increase in fecal excretion of deoxycholic acid at 100 mg/kg administered via oral gavage for 30 days simultaneously with high fat diet by enzymatic method relative to HFD treated vehicle; type: functional
[2] = molecular target: T1, 3-hydroxy-3-methylglutaryl-coenzyme A reductase (Homo sapiens) (UniProt P04035); assay: Inhibition of human HMG-CoA reductase catalytic domain at 10 uM using HMG-CoA as substrate in presence of NADPH by colorimetric method relative to control
T1 sequence (whole entry): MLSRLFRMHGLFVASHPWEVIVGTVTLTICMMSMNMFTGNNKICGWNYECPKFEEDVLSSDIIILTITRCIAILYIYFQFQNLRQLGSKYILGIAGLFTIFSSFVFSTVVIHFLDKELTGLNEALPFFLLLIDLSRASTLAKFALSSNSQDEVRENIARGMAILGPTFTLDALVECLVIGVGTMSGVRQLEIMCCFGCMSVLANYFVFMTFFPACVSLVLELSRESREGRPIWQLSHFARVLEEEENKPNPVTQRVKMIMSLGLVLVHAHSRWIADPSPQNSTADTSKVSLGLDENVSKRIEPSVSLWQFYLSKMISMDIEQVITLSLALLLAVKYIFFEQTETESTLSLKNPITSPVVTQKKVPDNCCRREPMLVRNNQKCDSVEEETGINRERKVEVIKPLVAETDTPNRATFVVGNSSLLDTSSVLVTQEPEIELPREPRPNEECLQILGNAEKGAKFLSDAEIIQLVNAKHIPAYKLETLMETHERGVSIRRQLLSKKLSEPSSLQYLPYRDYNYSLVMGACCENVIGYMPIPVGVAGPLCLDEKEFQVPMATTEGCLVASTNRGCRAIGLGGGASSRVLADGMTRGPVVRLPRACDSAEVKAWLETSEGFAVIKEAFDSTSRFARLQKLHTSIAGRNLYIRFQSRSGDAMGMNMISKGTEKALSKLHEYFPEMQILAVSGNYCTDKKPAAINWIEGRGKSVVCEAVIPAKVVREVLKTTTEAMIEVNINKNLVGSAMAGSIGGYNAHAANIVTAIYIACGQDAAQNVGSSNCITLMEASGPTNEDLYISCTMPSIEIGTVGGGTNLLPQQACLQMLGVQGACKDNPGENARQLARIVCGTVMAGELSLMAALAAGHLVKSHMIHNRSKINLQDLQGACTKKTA

[3] = test system: Rattus norvegicus; assay: Hypolipidemic activity in HFD-induced Charles Foster rat assessed as reduction in serum VLDL-TG at 100 mg/kg administered as single dose via oral gavage for 30 days simultaneously with high fat diet; type: functional, organism-based
[4] = Stability of the compound in simulated gastric fluid at 10 uM up to 60 mins by LC-MS/MS analysis
[5] = Apparent oral clearance in Sprague-Dawley rat at 100 mg/kg administered as single dose by LC-MS/MS analysis; type: ADME, organism-based; details: in vivo
[6] = test system: Rattus norvegicus; assay: Hypolipidemic activity in HFD-induced Charles Foster rat chronic hyperlipidemia model assessed as reduction in serum ALT level at 100 mg/kg administered via oral gavage for 30 days simultaneously with high fat diet by colorimetric method relative to HFD treated vehicle; type: functional; details: 720 h
[7] = molecular target: Albumin (Bos taurus, UniProt P02769); assay: Binding affinity to bovine serum albumin by fluorescence quenching method; type: ADME; details: cattle, isolated protein
[8] = test system: Rattus norvegicus; assay: Hypolipidemic activity in HFD-induced Charles Foster rat assessed as increase in LCAT activity at 100 mg/kg administered as single dose via oral gavage for 30 days simultaneously with high fat diet by photometric method; type: functional, organism-based
[9] = Apparent MRT in Sprague-Dawley rat at 100 mg/kg, po administered as single dose by LC-MS/MS analysis; type: ADME, organism-based; details: in vivo
[10] = test system: Rattus norvegicus; assay: Increase in phospholipid level in serum of triton WR-1339 induced Charles Foster rat hyperlipidemia model at 50 mg/kg, po administered simultaneously with triton WR-1339 after 18 hrs by enzymatic method relative to control; type: functional
[11] = test system: Rattus norvegicus; assay: Antihyperlipidemic activity in triton WR-1339 induced Charles Foster rat hyperlipidemia model assessed as inhibition of total cholesterol level in serum at 50 mg/kg, po administered simultaneously with triton WR-1339 after 18 hrs by enzymatic method relative to control; type: functional
[12] = test system: Rattus norvegicus; assay: Toxicity in HFD-induced Charles Foster rat chronic hyperlipidemia model assessed as food intake at 100 mg/kg administered via oral gavage for 30 days simultaneously with high fat diet (reference value: 9.81 +/- 0.61 g/day); type: organism-based; details: in vivo, 720 h
[13] = test system: Rattus norvegicus; assay: Antihyperlipidemic activity in po dosed triton WR-1339 induced Charles Foster rat hyperlipidemia model assessed as inhibition of phospholipid level in serum administered simultaneously with triton WR-1339 after 18 hrs by enzymatic method relative to control; type: functional, organism-based
[14] = test system: Rattus norvegicus; assay: Hypolipidemic activity in HFD-induced Charles Foster rat chronic hyperlipidemia model assessed as reduction in liver triglyceride level at 100 mg/kg administered via oral gavage for 30 days simultaneously with high fat diet by enzymatic method relative to HFD treated vehicle; type: functional; details: 720 h
[15] = test system: Rattus norvegicus; assay: Antihyperlipidemic activity in po dosed triton WR-1339 induced Charles Foster rat hyperlipidemia model assessed as increase in HDL-C level in serum administered simultaneously with triton WR-1339 after 18 hrs by enzymatic method relative to control; type: functional, organism-based
[16] = molecular target: T1, 3-hydroxy-3-methylglutaryl-coenzyme A reductase (Homo sapiens); assay: Inhibition of human HMG-CoA reductase catalytic domain at 20 uM using HMG-CoA as substrate in presence of NADPH by colorimetric method relative to control
[17] = Tmax in Sprague-Dawley rat at 100 mg/kg, po administered as single dose by LC-MS/MS analysis; type: ADME, organism-based; details: in vivo
[18] = test system: Rattus norvegicus; assay: Hypolipidemic activity in HFD-induced Charles Foster rat assessed as increase in lipolytic activity of LPL in liver at 100 mg/kg administered as single dose via oral gavage for 30 days simultaneously with high fat diet; type: functional, organism-based
[19] = test system: Rattus norvegicus; assay: Hypolipidemic activity in HFD-induced Charles Foster rat assessed as reduction in serum LDL-TC at 100 mg/kg administered as single dose via oral gavage for 30 days simultaneously with high fat diet; type: functional, organism-based
[20] = test system: Rattus norvegicus; assay: Antihyperlipidemic activity in triton WR-1339 induced Charles Foster rat hyperlipidemia model assessed as increase in HDL-C level in serum at 50 mg/kg, po administered simultaneously with triton WR-1339 after 18 hrs by enzymatic method relative to control; type: functional
[21] = test system: Rattus norvegicus; assay: Antihyperlipidemic activity in po dosed triton WR-1339 induced Charles Foster rat hyperlipidemia model assessed as inhibition of triglyceride level in serum administered simultaneously with triton WR-1339 after 18 hrs by enzymatic method relative to control; type: functional, organism-based
[22] = test system: Rattus norvegicus; assay: Antihyperlipidemic activity in HFD-induced Charles Foster rat chronic hyperlipidemia model assessed as body weight at 100 mg/kg administered via oral gavage for 30 days simultaneously with high fat diet (reference value: 263.52 +/- 21.56 g); type: functional
[23] = AUC (0 to infinity) in Sprague-Dawley rat at 100 mg/kg, po administered as single dose by LC-MS/MS analysis; type: ADME, organism-based; parameters: dose 100 mg/kg, time infinity, route oral; details: in vivo
[24] = test system: Rattus norvegicus; assay: Antihyperlipidemic activity in po dosed triton WR-1339 induced Charles Foster rat hyperlipidemia model assessed as inhibition of total cholesterol level in serum administered simultaneously with triton WR-1339 after 18 hrs by enzymatic method relative to control; type: functional, organism-based

Chain of Albumin (P02769 whole entry): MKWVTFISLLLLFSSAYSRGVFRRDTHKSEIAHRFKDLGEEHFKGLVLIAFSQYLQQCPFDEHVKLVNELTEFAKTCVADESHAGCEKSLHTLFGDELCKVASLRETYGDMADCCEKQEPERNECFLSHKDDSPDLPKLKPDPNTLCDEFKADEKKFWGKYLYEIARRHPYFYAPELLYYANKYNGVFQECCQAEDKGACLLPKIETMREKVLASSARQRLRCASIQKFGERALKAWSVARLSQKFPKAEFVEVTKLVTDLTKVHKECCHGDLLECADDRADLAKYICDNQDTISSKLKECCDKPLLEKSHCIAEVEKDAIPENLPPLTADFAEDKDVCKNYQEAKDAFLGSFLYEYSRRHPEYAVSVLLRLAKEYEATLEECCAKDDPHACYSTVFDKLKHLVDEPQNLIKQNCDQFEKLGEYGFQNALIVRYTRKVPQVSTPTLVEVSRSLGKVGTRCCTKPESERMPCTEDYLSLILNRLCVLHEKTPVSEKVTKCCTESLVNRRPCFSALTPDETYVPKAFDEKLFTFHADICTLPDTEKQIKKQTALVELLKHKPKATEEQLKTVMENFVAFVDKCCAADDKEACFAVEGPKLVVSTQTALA

inhibition [2]: 56% | CL/F [5]: 241 L/h/kg | Activity [7]: Active | MRT [9]: 4.46 h | inhibition [16]: 63% | Tmax [17]: 4 h | AUC(0-inf) [23]: 417 ng·h/mL
SMILES: COc1ccc(-c2cc3cc(C(c4c[nH]c5ccccc45)c4c[nH]c5ccccc45)cc(C(C)(C)C)c3oc2=O)cc1OC
Activity [1]: 39% | Activity [3]: Active | Stability [4]: Stable | inhibition in vivo at 100 mg/kg [6]: 26% | Activity [8]: Active | Activity [10]: 22% | inhibition in vivo at 50 mg/kg [11]: 20% | Activity [12]: 9.63 g/day | inhibition [13]: Dose-dependent effect | inhibition in vivo at 100 mg/kg [14]: 29% | Activity [15]: Dose-dependent effect | Activity [18]: Active | Activity [19]: Active | Activity [20]: 15% | inhibition [21]: Dose-dependent effect | Activity [22]: 228.19 g | inhibition [24]: Dose-dependent effect
